Laboratory results: US7915268B2, “8-substituted 2-(benzimidazolyl)purine derivatives for immunosuppression” (Wyeth LLC, priority 2006, dated 2011)

These compounds were tested against T1, Jak3 (Homo sapiens, UniProt P52333) (assay: Jak3 Kinase Assay (HTRF, GST-Jak3 catalytic domain)). Conditions: 1 μM ATP, 60-min incubation, read-out: Jak 3 (Converted).
T1 construct: catalytic domain of Jak3 (508aa to 1124aa); made in house; host or cells: Sf9 insect cells (baculovirus, pFastBac 1)
T1 sequence (P52333 508-1124): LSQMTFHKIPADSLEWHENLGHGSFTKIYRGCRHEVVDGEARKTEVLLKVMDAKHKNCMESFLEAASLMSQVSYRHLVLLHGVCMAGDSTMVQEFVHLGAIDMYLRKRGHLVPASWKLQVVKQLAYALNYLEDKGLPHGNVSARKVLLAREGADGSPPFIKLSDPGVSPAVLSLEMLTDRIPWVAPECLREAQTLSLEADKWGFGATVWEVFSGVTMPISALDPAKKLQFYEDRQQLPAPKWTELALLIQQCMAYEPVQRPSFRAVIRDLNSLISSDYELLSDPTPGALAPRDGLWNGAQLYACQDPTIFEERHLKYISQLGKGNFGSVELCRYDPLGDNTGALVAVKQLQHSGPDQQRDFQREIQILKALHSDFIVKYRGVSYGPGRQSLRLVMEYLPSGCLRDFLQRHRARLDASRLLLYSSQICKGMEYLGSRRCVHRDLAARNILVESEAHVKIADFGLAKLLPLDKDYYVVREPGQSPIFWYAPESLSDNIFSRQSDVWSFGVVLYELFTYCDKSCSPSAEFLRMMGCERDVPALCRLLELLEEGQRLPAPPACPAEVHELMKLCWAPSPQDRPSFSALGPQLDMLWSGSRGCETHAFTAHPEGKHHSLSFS
Type: biochemical
Method: Human Jak3 cDNA was amplified by PCR. A fragment encoding the catalytic domain of Jak3 (508aa to 1124aa) was ligated with GST at 5′ end. This fused GST-Jak3 DNA fragment was cloned into the EcoRI site of the donor plasmid pFastBac 1 (Life Technologies #10359-016). The transformation, transposition, and transfection of insect cells (Sf9) were performed according to the manufacture's instructions. The cell lysate containing recombinant GST-Jak3 was used in the kinase assay. Anti-GST antibody (10 μg/ml, Sigma #G1417) was coated onto a 384-well plate at 4° C. overnight. Cell lysate containing GST-Jak3 (1:100 dilution) was added to the anti-GST coated plates, and GST-Jak3 was captured by immobilized anti-GST antibody. Testing compounds and substrate mix (50 mM HEPES, pH 7, 0.5 mM Na3VO4, 25 mM MgCl2, 1 mM DTT, 0.005% BSA, 1 μM ATP, and 4.5 μg/ml biotinyl poly-Glu, Ala, Tyr) were added to the plate to initiate the reaction. After a 60-min incubation, the reaction was stopped by 4 mM EDTA, and phosphorylation of biotinyl poly-Glu, Ala, Tyr was detected using 17 μg/ml Cy5-streptavidin (Amersham, #PA92005) and 2.7 μg/ml Europium-conjugated anti-phosphotyrosine antibody (PerkinElmer #AD0069) using homogeneous time-resolved fluorescence (HTRF) technology.

Row | Structure (SMILES) | IC50 [nM]
1 | N#Cc1ccc2ncn(-c3ncc4nc(NC5CCCC5)n([C@@H]5CCOc6ccccc65)c4n3)c2c1 [Example 98] | < 100
2 | O=c1ccc(-c2nc3cnc(-n4cnc5ccc(F)cc54)nc3n2C2CCOCC2)c[nH]1 [Example 61] | 100 to 1000
3 | Fc1ccc2ncn(-c3ncc4nc(-c5ncc[nH]5)n(C5CCOCC5)c4n3)c2c1 [Example 33, 2-(6-Fluoro-1H-benzo[d]imidazol-1-yl)-8-(1H-imidazol-2-yl)-9-(tetrahydro-2H-pyran-4-yl)-9H-purine] | 100 to 1000
4 | Cc1ccccc1-c1nc2cnc(-n3cnc4ccc(C#N)cc43)nc2n1C1CCOCC1 [Example 3] | 100 to 1000
5 | Cc1nc2cnc(-n3cnc4ccccc43)nc2n1[C@@H]1CCOc2c(F)cccc21 [Example 81, 2-(1H-benzo[d]imidazol-1-yl)-9-((R)-8-fluorochroman-4-yl)-8-methyl-9H-purine] | < 100
6 | Oc1ccccc1-c1nc2cnc(-n3cnc4ccc(F)cc43)nc2n1C1CCOCC1 [Example 44] | 100 to 1000
7 | CC(=O)Nc1ccc(-c2nc3cnc(-n4cnc5ccc(C#N)cc54)nc3n2C2CCOCC2)cc1 [Example 7] | < 100
8 | CCc1nc2cnc(-n3cnc4ccc(F)cc43)nc2n1[C@@H]1CCOc2ccccc21 [Example 79] | < 100
9 | Cc1ccc(-c2nc3cnc(-n4cnc5ccc(F)cc54)nc3n2C2CCOCC2)o1 [Example 52] | 100 to 1000
10 | COC1CCN([C@H]2C(C)=Nc3cnc(-n4cnc5ccc(F)cc54)nc32)CC1 [Example 21] | 100 to 1000
11 | Cc1cccc(-c2nc3cnc(-n4cnc5ccc(F)cc54)nc3n2C2CCOCC2)n1 [Example 41] | > 1000
12 | [O-][n+]1ccc(-c2nc3cnc(-n4cnc5ccc(F)cc54)nc3n2C2CCOCC2)cc1 [Example 88] | 100 to 1000
13 | Cc1nc2cnc(-n3cnc4ccc(Cl)cc43)nc2n1[C@H](C)C(=O)NCC(F)(F)F [Example 92, (2R)-2-(2-(6-chloro-1H-benzo[d]imidazol-1-yl)-8-methyl-9H-purin-9-yl)-N-(2,2,2-trifluoroethyl)propanamide] | < 100
14 | N#Cc1ccc2ncn(-c3ncc4nc(-c5cnc(O)nc5O)n(C5CCOCC5)c4n3)c2c1 [Example 10] | < 100
15 | Fc1ccc2ncn(-c3ncc4nc(-c5ccc(Br)cn5)n(C5CCOCC5)c4n3)c2c1 [Example 64] | 100 to 1000
16 | CCNc1nc2cnc(-n3cnc4ccc(C#N)cc43)nc2n1[C@@H]1CCOc2ccccc21 [Example 97] | < 100

Row | Structure (SMILES) | IC50 [nM]
17 | Fc1cccc2c1COCC2n1c(-c2ccccc2)nc2cnc(-n3cnc4ccccc43)nc21 (centres unmarked) [Example 86, 2-(1H-benzo[d]imidazol-1-yl)-9-(8-fluoroisochroman-4-yl)-8-phenyl-9H-purine] | > 1000
18 | Oc1ccc(-c2nc3cnc(-n4cnc5ccc(F)cc54)nc3n2C2CCOCC2)cc1 [Example 54] | 100 to 1000
19 | Fc1cccc(-c2nc3cnc(-n4cnc5ccc(F)cc54)nc3n2C2CCOCC2)c1 [Example 67] | 100 to 1000
20 | COCCCn1c(C)nc2cnc(-n3cnc4ccccc43)nc21 [Example 84] | > 1000
21 | N#Cc1ccc2ncn(-c3ncc4nc(-c5cccc(O)c5)n(C5CCOCC5)c4n3)c2c1 [Example 8] | < 100
22 | CS(=O)(=O)Nc1cccc(-c2nc3cnc(-n4cnc5ccc(C#N)cc54)nc3n2C2CCOCC2)c1 [Example 14] | < 100
23 | Fc1ccc2ncn(-c3ncc4nc(-c5nccs5)n(C5CCOCC5)c4n3)c2c1 [Example 48] | 100 to 1000
24 | Fc1ccc2ncn(-c3ncc4nc(-c5cccc(OC(F)(F)F)c5)n(C5CCOCC5)c4n3)c2c1 [Example 58] | > 1000
25 | N#Cc1ccc2ncn(-c3ncc4nc(Nc5cccnc5)n(C5CCOCC5)c4n3)c2c1 [Example 107] | < 100
26 | CCCc1nc2cnc(-n3cnc4ccc(C#N)cc43)nc2n1C1CCOc2ccc(F)cc21 (centres unmarked) [Example 22] | < 100
27 | Cc1nc2cnc(-n3cnc4ccccc43)nc2n1C1COCc2c(F)cccc21 (centres unmarked) [Example 80] | 100 to 1000
28 | COc1cccc(Nc2nc3cnc(-n4cnc5ccc(C#N)cc54)nc3n2C2CCOCC2)c1 [Example 108] | < 100
29 | Cc1nc2cnc(-n3cnc4ccc(OC(F)(F)F)cc43)nc2n1[C@@H]1CCOc2c(F)cccc21 [Example 75] | 100 to 1000
30 | Fc1ccc2ncn(-c3ncc4nc(-c5ccncc5)n([C@@H]5CCOc6c(F)cccc65)c4n3)c2c1 [Example 49] | < 100
31 | CSc1nc2cnc(-n3cnc4ccc(F)cc43)nc2n1[C@@H]1CCOc2c(F)cccc21 [Example 111] | < 100

The next lines start with the values.

Row | IC50 [nM] | Structure (SMILES)
32 | < 100 | Fc1ccc2ncn(-c3ncc4nc(-c5ccc(Br)nc5)n(C5CCOCC5)c4n3)c2c1 [Example 36]
33 | 100 to 1000 | Cc1cccc(-c2nc3cnc(-n4cnc5ccc(C#N)cc54)nc3n2C2CCOCC2)c1 [Example 12]
34 | < 100 | COc1ccc(-c2nc3cnc(-n4cnc5ccc(F)cc54)nc3n2C2CCOCC2)cn1 [Example 63]
35 | < 100 | Nc1nccc(-c2nc3cnc(-n4cnc5ccc(Cl)cc54)nc3n2C2CCOCC2)n1 [Example 43]
36 | < 100 | N#Cc1ccc2ncn(-c3ncc4nc(-c5cnc(N)nc5)n(C5CCOCC5)c4n3)c2c1 [Example 9]
37 | 100 to 1000 | CO[C@H]1CC[C@H](n2c(C)nc3cnc(-n4cnc5ccc(OC(F)(F)F)cc54)nc32)CC1 [Example 26]
38 | < 100 | Cc1nc2cnc(-n3cnc4ccc(C#N)cc43)nc2n1C1CCOCC1 [Example 25, 3-(8-Methyl-9-(tetrahydro-2H-pyran-4-yl)-9H-purin-2-yl)-3H-benzo[d]imidazole-5-carbonitrile]
39 | < 100 | Fc1ccc2ncn(-c3ncc4nc(-c5ccc(F)nc5)n(C5CCOCC5)c4n3)c2c1 [Example 46]
40 | < 100 | Clc1ccc2ncn(-c3ncc4nc(-c5cncnc5)n(C5CCOCC5)c4n3)c2c1 [Example 65]
41 | 100 to 1000 | COc1cccc(-c2nc3cnc(-n4cnc5ccc(C#N)cc54)nc3n2C2CCOCC2)c1 [Example 4]
42 | < 100 | Fc1ccc2ncn(-c3ncc4nc(-c5cncnc5)n(C5CCOCC5)c4n3)c2c1 [Example 38]
43 | < 100 | Cc1nc2cnc(-n3cnc4ccc(F)cc43)nc2n1C1CCOCC1 [Example 72]
44 | < 100 | Fc1ccc2ncn(-c3ncc4nc(-c5cncnc5)n([C@@H]5CCOc6c(F)cccc65)c4n3)c2c1 [Example 55]
45 | < 100 | Cc1nc2cnc(-n3cnc4ccc(Cl)cc43)nc2n1C1CCOCC1 [Example 74]
46 | 100 to 1000 | Cn1cccc1-c1nc2cnc(-n3cnc4ccc(F)cc43)nc2n1C1CCOCC1 [Example 50]
47 | 100 to 1000 | COC(=O)c1cccc(-c2nc3cnc(-n4cnc5ccc(F)cc54)nc3n2C2CCOCC2)c1 [Example 31]
48 | < 100 | Fc1ccc2ncn(-c3ncc4nc(-c5ccncc5)n(C5CCOCC5)c4n3)c2c1 [Example 32]
49 | 100 to 1000 | CO[C@H]1CC[C@H](n2c(C)nc3cnc(-n4cnc5ccc(Cl)cc54)nc32)CC1 [Example 73]
50 | < 100 | O[C@@H]1CC[C@@H](n2c(-c3cncnc3)nc3cnc(-n4cnc5ccc(F)cc54)nc32)c2ccccc21 [Example 112, (1R,4R)-4-(2-(6-Fluoro-1H-benzo[d]imidazol-1-yl)-8-(pyrimidin-5-yl)-9H-purin-9-yl)-1,2,3,4-tetrahydronaphthalen-1-ol]
51 | 100 to 1000 | CO[C@H]1CC[C@H](n2c(-c3cncnc3)nc3cnc(-n4cnc5ccc(Cl)cc54)nc32)CC1 [Example 29]
52 | < 100 | N#Cc1ccc2ncn(-c3ncc4nc(-c5cncnc5)n(C5CCOCC5)c4n3)c2c1 [Example 1]
53 | < 100 | Cn1cncc1-c1nc2cnc(-n3cnc4ccc(F)cc43)nc2n1C1CCOCC1 [Example 39]
